According to article PMC3280264 (PLoS ONE, 2012):
Marks after values point to notes of the source that are not given here.

Legend:
Human SGLT3 = molecular target: T1, Human SGLT3 (Homo sapiens, UniProt Q9NY91); assay: Two-electrode voltage clamp recording of oocytes expressing human SGLT3 (DNJ-induced currents); type: cell-based
T1 construct: expressed in transfected cells; host or cells: oocytes (from Nasco), injected with mRNA
T1 sequence (Q9NY91 1-659): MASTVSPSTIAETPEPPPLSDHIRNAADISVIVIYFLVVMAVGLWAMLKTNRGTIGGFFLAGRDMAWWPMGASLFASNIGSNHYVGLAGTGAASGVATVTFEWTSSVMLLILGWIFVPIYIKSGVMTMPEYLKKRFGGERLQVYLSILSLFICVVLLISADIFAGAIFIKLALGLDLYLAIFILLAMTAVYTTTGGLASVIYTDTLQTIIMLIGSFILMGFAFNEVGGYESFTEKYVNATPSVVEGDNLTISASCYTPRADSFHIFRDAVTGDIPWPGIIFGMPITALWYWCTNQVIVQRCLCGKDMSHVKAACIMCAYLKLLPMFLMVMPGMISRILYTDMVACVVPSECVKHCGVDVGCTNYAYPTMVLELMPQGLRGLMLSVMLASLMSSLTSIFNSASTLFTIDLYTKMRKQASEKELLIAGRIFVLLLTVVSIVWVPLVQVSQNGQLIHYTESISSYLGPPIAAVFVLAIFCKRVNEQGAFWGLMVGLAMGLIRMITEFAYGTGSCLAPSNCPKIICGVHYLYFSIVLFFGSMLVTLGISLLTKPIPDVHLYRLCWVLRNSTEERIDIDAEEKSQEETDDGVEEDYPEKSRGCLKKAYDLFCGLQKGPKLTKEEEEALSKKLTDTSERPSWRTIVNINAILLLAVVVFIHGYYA
Method: Oocytes were obtained from Nasco (Fort Atkinson, Wisconsin, USA). Stage V–VI oocytes were injected with 50 nl of either human SGLT3 mRNA (at 1 ng/nl) or distilled water (control) and incubated at 18°C in a calcium-free solution (92 mM NaCl, 2 mM KCl, 1 mM MgCl2, 5 mM HEPES, 0.05 mg/ml gentamicin at pH 7.5) for 4–6 days before recording. The extracellular recording solution contained 92 mM NaCl, 2 mM KCl, 1.8 mM CaCl2, 1 mM MgCl2, and 5 mM HEPES at pH 7.5. Injected oocytes were impaled with 2 microelectrodes filled with 3 M KCl (resistance of ∼0.5–3 MΩ) and voltage clamped to −120 mV, at which continuous recordings were made (filtered at 5 kHz and sampled at 625 Hz). To establish the baseline in the absence of agonist, oocytes were first perfused for 85 seconds with a control buffer (92 mM NaCl, 2 mM KCl, 1.8 mM CaCl2, 1 mM MgCl2, 5 mM HEPES at pH 7.5). […] Finally, phlorizin (3 mM) was applied in the presence of 50 µM DNJ for 160 seconds. All experiments were performed at 22°C. Currents in the presence of 50 µM DNJ were subtracted from leak currents (currents in control buffer alone) to obtain DNJ-induced currents (IDNJ). Effects of compounds were calculated as: % Inhibition = 100×(IDNJ−Icmpd)/IDNJ, where Icmpd is the DNJ-induced and leak-subtracted current in the presence of a compound or DMSO. Due to lack of effect at the highest dose tested, a dose-response relationship was not examined.

ZDF rats = assay: Graded glucose infusion, renal threshold for glucose excretion in ZDF rats; type: in vivo, rat; conditions: 1 mg/kg
Source text: (§1) Four rodent models were used in these experiments: (1) male C57BL/6J mice fed with a high-fat diet (D-12492 with 60 kcal% fat, Research Diets, Inc, New Jersey, USA) (diet-induced obese, insulin resistantmice [DIO]); (2) male C57BL/ksj-db/db hyperglycemic mice; (3) male Zucker fatty (ZF) obese, insulin resistant rats; and (4) male ZDF obese, hyperglycemic rats. All animals were housed according to standard procedures following a protocol approved by the IACUC in Drug Discovery at Johnson & Johnson Pharmaceutical Research & Development, LLC.
Two separate graded glucose infusion (GGI) studies were performed to characterize renal glucose handling in both untreated and treated ZDF rats. […] The RTG was determined as described below.
The relationship between UGE and BG is commonly described as a threshold relationship in which there is little UGE when BG<RTG and UGE increases with filtered glucose load when BG>RTG, where the filtered glucose load is equal to the BG concentration multiplied by the glomerular filtration rate (GFR). […] (1) Values of RTG were determined using nonlinear regression (nlinfit in Matlab version 7.10) with Equation 1 and the measured BG and UGE values.

DIO mice = assay: 4-week treatment of DIO mice (body weight, UGE, calorimetry); type: in vivo; conditions: DIO mouse, 30 mg/kg, 4 weeks
Source text: as §1
Body weight, food intake, and BG levels were monitored weekly. UGE and indirect calorimetry were conducted in the fourth week of treatment during the compound treatment. […] Body weight, food intake, and BG were measured weekly during the 19-day treatment period. UGE, body fat, and indirect calorimetric studies were conducted at the end of this study.

Rat SGLT2 = Rat SGLT2 (Rattus norvegicus, UniProt P53792); assay: cell-based
Sequence of Rat SGLT2 (P53792 whole entry): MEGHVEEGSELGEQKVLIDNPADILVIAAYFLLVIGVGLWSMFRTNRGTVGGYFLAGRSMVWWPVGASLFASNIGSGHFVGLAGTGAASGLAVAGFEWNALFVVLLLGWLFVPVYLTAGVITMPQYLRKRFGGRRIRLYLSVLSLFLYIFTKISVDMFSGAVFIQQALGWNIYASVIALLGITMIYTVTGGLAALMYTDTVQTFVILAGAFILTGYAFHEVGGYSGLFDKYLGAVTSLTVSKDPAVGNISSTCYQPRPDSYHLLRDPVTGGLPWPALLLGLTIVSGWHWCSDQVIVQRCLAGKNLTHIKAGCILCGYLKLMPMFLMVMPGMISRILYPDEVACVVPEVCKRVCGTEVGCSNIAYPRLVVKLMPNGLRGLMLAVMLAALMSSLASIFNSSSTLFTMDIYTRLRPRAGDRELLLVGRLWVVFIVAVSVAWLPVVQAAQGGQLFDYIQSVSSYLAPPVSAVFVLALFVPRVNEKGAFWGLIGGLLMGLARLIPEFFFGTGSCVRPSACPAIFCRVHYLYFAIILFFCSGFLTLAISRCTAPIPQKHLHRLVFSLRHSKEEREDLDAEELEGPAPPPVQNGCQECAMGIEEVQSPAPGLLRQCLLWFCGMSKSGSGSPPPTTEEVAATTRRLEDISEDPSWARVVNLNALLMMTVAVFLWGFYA

Cc1ccc([C@@H]2O[C@H](CO)[C@@H](O)[C@H](O)[C@H]2O)cc1Cc1ccc(-c2ccc(F)cc2)s1 [canagliflozin, Canagliflozin]
inhibition at 10 µM (Human SGLT3; 10 µM, SGLT3-injected oocytes, 50 µM DNJ, n = 9, DMSO 15.6±3.1%, difference not statistically significant): 23.4 ± 4.3%
effect on currents in sham-injected oocytes (Human SGLT3; 10 µM, sham (water)-injected oocytes, in the presence of 50 µM DNJ): did not affect currents
effect on DNJ-induced currents (Human SGLT3; oocytes expressing human SGLT3, column head IC50, nM): No inhibitory effect
BG at which negligible UGE occurred (ZDF rats; insulin + GGI study): < 90 mg/dL
renal threshold for glucose excretion (RTG) (ZDF rats; untreated 415±12 mg/dl): 94 ± 10 mg/dL
RER (DIO mice; vehicle 0.79±0.01): 0.77±0.01 ^b
UGE (DIO mice; vehicle 2.4±0.6): 26.1±5.2 ^b mg/4 h
Body weight (DIO mice; vehicle 53.2±0.6): 49.6±1.0 ^b g
Fed BG (DIO mice; vehicle 199±16): 105±13 ^b mg/dl
Oxygen consumption (VO2) (DIO mice; vehicle 2364±29): 2419 ± 109 mL/kg/h
IC50 (Rat SGLT2): 3.7 nM
